# US10624897B2, “Chlorobenzene substituted azaaryl compounds” (TAIPEI MEDICAL UNIVERSITY, priority 2015, dated 2020)
# Values joined by “and” are separate entries in the source; they are usually repeats but may differ in a detail not shown here. Equal entries are not always repeated.
# Tests used:
# FGFR signaling = assay: Western blot of FGFR signaling in RT-112 cells; type: cell-based
# Description: BGJ-398, a known selective inhibitor of FGFR1 to FGFR3, was included as a reference compound. […] The major downstream pathways of FGFRs are MAPK, PI3K/AKT, and PLC-γ. RT-112 cells, which express FGFR3-TACC3, are reportedly unable to activate PLCγ due to a deletion of the last exon of FGFR3.
# HUVEC = assay: MTT assay, viability of normal cells; type: cell-based, Human; conditions: 72 hours, FIG. 1B
# Experimental: Cell viability was assessed the MTT assay. […] Data are expressed as means±S.D. (***P<0.001 compares to control group).
# Cells were cultured in RPMI-1640 (RT-112, KMS-11, SNU-16, HT-29, HCT-116, NCI—H520, Hep3B, PLC/PRF/5, HL-60, MOLT-4) and DMEM (HepG2, MCF-7, MDA-MB-231) with 10% FBS (v/v) and Penicillin/Streptomycin (100 U/ml). FU-DDLS-1 cell line was maintained in DMEM:F12 medium with 10% FBS. LiSa-2 cell line was maintained in IMDM/RPMI-1640 in a 4:1 ratio supplemented with 10% FBS, 2 mmol/L L-glutamine, and 0.1 mg/mL gentamicin. Human umbilical vein endothelial cells (HUVECs) were grown to confluence on 1% collagen, and maintained in 90% Medium 199 with 25 U/ml heparin, 30 μg/ml endothelial cell growth supplement (ECGS) adjusted to contain 1.5 g/L sodium bicarbonate, 10% FBS and Penicillin/Streptomycin (100 U/ml) Cultures were maintained at 37° C. in a humidified atmosphere of 5% CO2/95% air.
# Cells were seeded in 96-well plates (5,000 cells/well) and incubated overnight for attachment, and were then treated with indicated agents in 10% FBS-supplemented medium for 72 hours. […] After removal of medium, the cells were lysed with 100 μL per well dimethyl sulfoxide (DMSO), and absorbance at 550 nm was measured with microplate reader. The relative cell viability (%) was expressed as a percentage relative to a DMSO control cells.
# FGFR3 = target: T1, FGFR3 (Homo sapiens, UniProt P22607); assay: Kinase binding assay (Kd); conditions: FGFR3 (wild-type)
# T1 construct: made in house; host or cells: E. coli BL21-derived host (T7 phage) or HEK-293
# T1 sequence (P22607 23-806): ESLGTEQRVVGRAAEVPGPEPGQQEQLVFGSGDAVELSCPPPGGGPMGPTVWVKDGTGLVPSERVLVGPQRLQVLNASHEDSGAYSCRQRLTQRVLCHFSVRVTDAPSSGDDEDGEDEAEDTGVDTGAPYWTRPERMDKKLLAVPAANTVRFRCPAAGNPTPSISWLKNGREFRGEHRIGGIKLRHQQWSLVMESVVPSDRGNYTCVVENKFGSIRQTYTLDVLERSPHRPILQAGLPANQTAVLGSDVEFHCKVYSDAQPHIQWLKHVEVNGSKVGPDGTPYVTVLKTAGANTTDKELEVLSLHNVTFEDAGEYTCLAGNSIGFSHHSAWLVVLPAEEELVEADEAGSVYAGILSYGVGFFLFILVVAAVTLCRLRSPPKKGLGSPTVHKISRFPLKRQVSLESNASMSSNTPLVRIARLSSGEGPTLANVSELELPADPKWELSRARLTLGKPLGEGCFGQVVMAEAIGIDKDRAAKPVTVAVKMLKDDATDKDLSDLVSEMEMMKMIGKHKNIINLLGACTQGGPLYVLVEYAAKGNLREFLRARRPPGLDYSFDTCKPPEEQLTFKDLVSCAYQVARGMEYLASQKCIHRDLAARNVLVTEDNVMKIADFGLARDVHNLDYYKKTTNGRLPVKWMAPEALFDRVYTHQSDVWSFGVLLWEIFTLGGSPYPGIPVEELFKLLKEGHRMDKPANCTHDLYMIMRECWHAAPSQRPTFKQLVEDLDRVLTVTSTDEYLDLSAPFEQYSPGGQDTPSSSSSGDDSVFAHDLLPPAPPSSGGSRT
# Experimental: Kinase assays. For most assays, kinase-tagged T7 phage strains were prepared in an E. coli host derived from the BL21 strain. E. coli were grown to log-phase and infected with T7 phage and incubated with shaking at 32° C. until lysis. The lysates were centrifuged and filtered to remove cell debris. The remaining kinases were produced in HEK-293 cells and subsequently tagged with DNA for qPCR detection. […] The liganded beads were blocked with excess biotin and washed with blocking buffer (SeaBlock (Pierce), 1% BSA, 0.05% Tween 20, 1 mM DTT) to remove unbound ligand and to reduce non-specific binding. […] All reactions were performed in polystyrene 96-well plates in a final volume of 0.135 ml. […] The kinase concentration in the eluates was measured by qPCR.
# An 11-point 3-fold serial dilution of each test compound was prepared in 100% DMSO at 100× final test concentration and subsequently diluted to 1× in the assay (final DMSO concentration=1%). Most Kds were determined using a compound top concentration=30,000 nM.
# Binding constants (Kds) were calculated with a standard dose-response curve using the Hill equation: […]
# The Hill Slope was set to −1. Curves were fitted using a non-linear least square fit with the Levenberg-Marquardt algorithm.
# The compound and assay method are similar to those mentioned in Example 45.
smiles,measurement,setting,value
"CCN1CCN(c2ccc(Nc3ncnc(N(C)C(=O)Nc4c(Cl)c(OC)c(Cl)c(OC)c4Cl)n3)cc2)CC1 [MPT0L145, 1-(4-((4-(4-ethylpiperazin-1-yl)phenyl)amino)-1,3,5-triazin-2-yl)-1-methyl-3-(2,4,6-trichloro-3,5-dimethoxyphenyl)urea]",inhibiting AKT phosphorylation,"FGFR signaling; 1 to 4 h, FIG. 2B, 2C",better potency than BGJ-398
same,auto-phosphorylation of FGFR1 and FGFR3 and docking protein FRS2,"FGFR signaling; 1 h, FIG. 2A",exerted inhibitory activity
same,phosphorylation of ERK,"FGFR signaling; 1 h, concentration-dependent, FIG. 2B",inhibited
same,phosphorylation of ERK and AKT,"FGFR signaling; 8 h, FIG. 2D",fully repressed
same,toxicity in normal cells (HUVEC) compared with BGJ-398,HUVEC,significantly lower toxicity
same,Kd,FGFR3,0.27 µM and 0.39 µM
